Measured values reported in patent publication US8252831B2, “Imidazole-2-benzamide compounds useful for the treatment of osteoarthritis” (Eli Lilly and Company, priority 2010, dated 2012).

Tests used:
[1] = test system: Human whole blood; experiment: Human Whole Blood Assay (LPS induced PGE2 production); assay type: cell-based; conditions: LPS 100 μg/mL, 20-24 hours, PGE2 by LC/MS/MS, read-out: PGE2 Inhibition. IC50 (μM, mean ± std. dev.)
Method: Blood is collected from normal volunteer donors into sodium heparin vacutainer tubes. Donors are selected, in part, on their confirmation that they have not taken NSAIDs, aspirin, Celebrex, or glucocorticoids within two weeks of the donation. All tubes/donor are pooled into 250 mL Corning conical centrifuge tubes and 436.5 μL/well is distributed into deep well polypropylene plates. Compounds are diluted in DMSO to 100× final and 4.5 μL/well in duplicate or triplicate is added to give 7 point curves. […] One hundred microliters is quantitatively transferred to Costar cluster tubes blocks and 400 μL/well of the methanol stop reagent and internal standards, d-4PGE2, d-4PGF2α, and d-4TX2β are added. […]
Solid phase extraction is performed using Waters HLB 30 mg/bed 96 well plates on a vacuum manifold: 1) the matrix is washed with methanol (1 mL), followed by 0.1% formic acid in water (1 mL); 2) 400 μL sample is applied along with 0.1% formic acid in water (900 μL) and allowed to bind for 5 minutes; 3) the matrix is washed with 0.1% formic acid in water (600 μL), followed by 80/20 water/methanol (600 μL); 4) the products are eluted with 2-500 μL volumes of ethyl acetate; 5) the samples are dried under nitrogen and reconstituted in 75/25 water/acetonitrile with 0.1% formic acid (50 μL). The products were analyzed by LC/MS/MS. […]

[2] = test system: Human epithelial lung carcinoma cell line A549; experiment: Cell Based Assay for Measuring Eicosanoid Selectivity (rhIL-1β induced PGE2 in A549 cells); conditions: rhIL-1β 0.1-0.2 ng/mL, approximately 18 hours, PGE2 by EIA, read-out: PGE2 Inhibition. IC50 (μM, mean ± std. dev.)
Method: Human epithelial lung carcinoma cell line A549 is obtained from ATCC (CCL-185) and is maintained in Kaighn's F12 (“F12K”)+10% fetal bovine serum, (FBS) (plating medium), and 5% CO2. The cells are passaged at 1:3 twice per week.
For assay, cells are released from flasks by washing once with phosphate buffered saline (PBS), then once with Trypsin/EDTA. After 3-5 minutes at 37° C., the cells are suspended in 10 mL of plating medium and centrifuged at 2000 rpm, 25° C., for 5 minutes. The supernatant is aspirated and the cell pellet is resuspended in 10 mL F12K. Cell number is determined by counting an aliquot of cells which has been diluted in PBS and Trypan blue on a hemocytometer. Cells are plated at 40,000/well in 96 well Falcon plates 24 hours prior to treatment. Compounds are diluted in DMSO to 100× of the final concentration in Screen Mates tubes. The medium is removed from the cells and fresh medium (90 μL/well) is added to the cells. […] The plates are incubated at room temperature for 30-45 minutes and then read on a plate reader at A490 to determine viability. […]
The conditioned medium is assayed for levels of PGE2 and PGI2 by specific enzyme immune-assays (EIAs), according to the manufacturer's protocols (Cayman). […] After approximately 45 minutes at room temperature on an orbital shaker at 100 rpm, the plates are read at A412 on a plate reader. […]

Compound: CC(C)(C)C(=O)NCc1ccc(Br)c(C(=O)Nc2ncc[nH]2)c1 [Example 5, 2-Bromo-5-[(2,2-dimethylpropanoylamino)methyl]-N-(1H-imidazol-2-yl)benzamide]
- IC50 [1]: 0.607 ± 0.502 µM
- IC50 [2]: 0.19 µM
